# Experiments:
# [1] = cited from earlier work
# [2] = cited from earlier work; remark: listed apart in the source
# [3] = system: convulsions induced (MES); assay: MES test (convulsions produced by electroshocks) in mice, drugs alone and in combination, isobolographic analysis; format: in vivo
# Description: MES test in rodents is broadly accepted as an experimental model of tonic-clonic convulsions or certain partial convulsions with or without secondary generalization. Brain concentrations were also assessed with anti-epilepsy compounds to monitor whether effects result in a pharmacodynamic and/or pharmacokinetic interaction.
# Tests were carried out in Swiss, male, adult, albine mice with a weight between 22-26 gr.
# Firstly, separately administered medicament effects were studied.
# [4] = in vivo; cited from earlier work
# [5] = CZP 20 mg/kg peritoneally, 30 minutes before MES test
# [6] = CZP 25 mg/kg peritoneally, 30 minutes before MES test
# [7] = CZP 30 mg/kg peritoneally, 30 minutes before MES test
# [8] = CZP 35 mg/kg peritoneally, 30 minutes before MES test
# [9] = CZP 40 mg/kg peritoneally, 30 minutes before MES test
# [10] = LTG 3 mg/kg peritoneally, 60 minutes before MES test
# [11] = LTG 4 mg/kg peritoneally, 60 minutes before MES test
# [12] = LTG 5 mg/kg peritoneally, 60 minutes before MES test
# [13] = LTG 6 mg/kg peritoneally, 60 minutes before MES test
# [14] = LTG 8 mg/kg peritoneally, 60 minutes before MES test
smiles,measurement,setting,value
"O=C1CN=C(c2ccccc2Cl)c2cc([N+](=O)[O-])ccc2N1 [CZP, Clonazepam]",attachment to plasma proteins,[1],85%
same,bioavailability,[2]; orally administered,90%
same,recovered in urine in unaltered form,"[2]; urine, po",Less than 0.5%
same,% (Percentage of protection against MES test),[3]; [5],12.5%
same,P/T (Number of protected animals against electroconvulsion / Total number of animals challenged with MES test),[3]; [5],1/8
same,% (Percentage of protection against MES test),[3]; [6],25%
same,P/T (Number of protected animals against electroconvulsion / Total number of animals challenged with MES test),[3]; [6],2/8
same,% (Percentage of protection against MES test),[3]; [7],50%
same,P/T (Number of protected animals against electroconvulsion / Total number of animals challenged with MES test),[3]; [7],4/8
same,% (Percentage of protection against MES test),[3]; [8],75%
same,P/T (Number of protected animals against electroconvulsion / Total number of animals challenged with MES test),[3]; [8],6/8
same,% (Percentage of protection against MES test),[3]; [9],100%
same,P/T (Number of protected animals against electroconvulsion / Total number of animals challenged with MES test),[3]; [9],8/8
"Nc1nnc(-c2cccc(Cl)c2Cl)c(N)n1 [LTG, Lamotrigine]",attachment to plasma proteins,[1],about 55%
same,adverse event: asthenia,[4],10%
same,adverse event: ataxia,[4],11%
same,adverse event: diplopy,[4],14%
same,adverse event: generalized allergic rash,[4],2-3%
same,adverse event: headache,[4],12%
same,adverse event: skin rash,[4],3%
same,adverse event: somnolence,[4],13%
same,adverse event: vertigo,[4],14%
same,removed without changes by feces,[2]; feces,2%
same,drug unalteredly removed,[2]; in vivo,10%
same,% (Percentage of protection against MES test),[3]; [10],0%
same,P/T (Number of protected animals against electroconvulsion / Total number of animals challenged with MES test),[3]; [10],0/8
same,% (Percentage of protection against MES test),[3]; [11],25%
same,P/T (Number of protected animals against electroconvulsion / Total number of animals challenged with MES test),[3]; [11],2/8
same,% (Percentage of protection against MES test),[3]; [12],50%
same,P/T (Number of protected animals against electroconvulsion / Total number of animals challenged with MES test),[3]; [12],4/8
same,% (Percentage of protection against MES test),[3]; [13],75%
same,P/T (Number of protected animals against electroconvulsion / Total number of animals challenged with MES test),[3]; [13],6/8
same,% (Percentage of protection against MES test),[3]; [14],100%
same,P/T (Number of protected animals against electroconvulsion / Total number of animals challenged with MES test),[3]; [14],8/8

# From patent EP2179735A1 (WORLD-TRADE IMPORT-EXPORT, WTIE, A.G., priority 2007, dated 2009)
